# Experimental data taken from article PMC4648589, “Selection of an HLA-C*03:04-Restricted HIV-1 p24 Gag Sequence Variant Is Associated with Viral Escape from KIR2DL3+ Natural Killer Cells: Data from an Observational Cohort in South Africa” (PLoS Medicine, 2015).
# Several values for one entry are separate records, joined by “and”; a condition that tells them apart may be missing. Equal entries are not always repeated.
# Key:
# KIR2DL3 = target: T1, KIR2DL3 (Homo sapiens, UniProt P43628); experiment: KIR2DL3-Fc binding to peptide-pulsed 721.221-ICP47-C*03:04 cells (flow cytometry); conditions: for KIR2DL3-Fc Binding (Mean ± SD): ratio of percent KIR2DL3-Fc binding of variant peptide to that of wild-type peptide TGag303; for KIR2DL3-Fc binding, percent of cells binding KIR2DL3-Fc: cells pulsed with 100 μM peptide for 20 h, 2.5 μg KIR2DL3-Fc, 1 h on ice, mean ± SD of six independent experiments
# T1 construct: purchased R&D Systems (KIR2DL3-Fc); Immudex (HLA-C*03:04/peptide monomers)
# T1 sequence (P43628 with tags, fused parts or gaps limits assumed): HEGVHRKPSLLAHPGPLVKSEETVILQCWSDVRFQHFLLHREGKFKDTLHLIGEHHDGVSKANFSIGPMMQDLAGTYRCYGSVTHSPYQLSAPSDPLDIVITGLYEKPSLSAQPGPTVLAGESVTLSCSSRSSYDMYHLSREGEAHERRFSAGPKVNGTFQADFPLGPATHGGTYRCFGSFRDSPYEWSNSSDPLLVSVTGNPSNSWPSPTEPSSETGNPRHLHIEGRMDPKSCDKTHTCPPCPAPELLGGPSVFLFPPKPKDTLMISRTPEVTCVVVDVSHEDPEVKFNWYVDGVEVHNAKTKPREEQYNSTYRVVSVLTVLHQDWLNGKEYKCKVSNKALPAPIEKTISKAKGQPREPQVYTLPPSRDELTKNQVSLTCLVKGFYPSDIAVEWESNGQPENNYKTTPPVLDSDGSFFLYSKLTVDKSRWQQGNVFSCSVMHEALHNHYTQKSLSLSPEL
# [1] = tested on: primary KIR2DL3+ NK cells; experiment: Primary NK cell degranulation (CD107a) against peptide-pulsed 721.221-ICP47-C*03:04 cells, KIR2DL3+ subset; type: cell-based, human; conditions: for KIR2DL3+ NK Cell Activity (Mean ± SEM): ratio of percent CD107a+ KIR2DL3+ NK cells with variant peptide to that with wild-type peptide; for Relative degranulation of KIR2DL3+ NK cells (CD107a): % CD107a+ NK cells divided by % with GKL control peptide, effector:target 1:5, 6 h at 26°C, mean ± SEM, nine donors
# Protocol: (§1) To determine activation of primary NK cells following exposure to target cells pulsed with different peptide variants, NK cell degranulation assays measuring CD107a expression were performed using freshly isolated and purified NK cells from nine healthy KIR2DL3+ individuals. Primary NK cells were isolated by incubating whole blood with RosetteSep Human NK Cell Enrichment Cocktail (Stemcell Technologies) for 20 min at room temperature, followed by Histopaque-1077 (Sigma) density gradient centrifugation. NK cells were rested overnight in RPMI medium 1640 (Sigma-Aldrich) supplemented with 10% heat-inactivated fetal calf serum (Sigma-Aldrich), 2,500 U/ml penicillin, 2,500 μg/ml streptomycin, […] L-glutamine (Cellgro), and 1.0 ng/ml IL-15 (Cellgro). Subsequently, NK cells (1 × 10^5) were co-incubated with peptide-pulsed 721.221-ICP47-C*03:04 cells (5 × 10^5) at an effector:target ratio of 1:5 in RPMI containing anti-human CD107a-PE-Cy7 (12.5 μl/ml) and monensin (1.5 μl/ml, BD GolgiStop). Cells were incubated for 6 h at 26°C in 5% CO2. Cells were stained with 7AAD, anti-CD3-PB, anti-CD16-BV785, anti-CD56-BV605, anti-CD14/19-BV510, anti-KIR2DL2/3-PE, and anti-KIR2DL3-APC, washed, fixed with 4% (w/v in PBS) paraformaldehyde (Affymetrix), and analyzed by multiparameter flow cytometry using a BD LSR II.
# Flow cytometry data were analyzed using FlowJo software version 10.0.6 (Tree Star), and statistical analysis was performed using GraphPad Prism 6 (GraphPad Software). HLA stabilization values are shown as mean relative fluorescence intensity; error bars represent standard deviation (SD). Relative fluorescence intensity was calculated by dividing the geometric mean fluorescence intensity (gMFI) of HLA expression in the presence of the tested peptide by the gMFI of stained target cells without peptide added in each respective assay. Binding of KIR2DL3-Fc is represented as percent of KIR2DL3+ cells ± SD. […] A repeated-measures one-way ANOVA was subsequently performed to compare the responses between the wild-type group and the groups of the two variant peptides, for the KIR2DL3+ and KIR2DL3− NK cells, respectively. This was followed by a Tukey’s post hoc test. Each individual was sampled one time.
# HLA-C*03:04 = HLA-C*03:04 (Homo sapiens, UniProt P10321, A176E/A330V/A97T/C25G/C350S/D114A/D33Y/E197K/L119I/L127V/L171W/L218V/M285V/M309V/M331V/P208H/Q277E/Q291P/R243W/R45H/S123Y/S140Y/S297R/S48A/T118I/T187L/T329A/T363A/V319A); experiment: HLA-C*03:04 stabilization assay on peptide-pulsed TAP-blocked 721.221-ICP47-C*03:04 cells (W6/32 staining, flow cytometry); type: cell-based; conditions: for HLA-C*03:04 stabilization, mean relative fluorescence intensity / HLA-C*03:04 stabilization, mean relative fluorescence intensity, titration: mean ± SD; for HLA-C*03:04 stabilization, mean relative fluorescence intensity: n = 3; for HLA-C*03:04 stabilization, mean relative fluorescence intensity (RFI): 100 μM peptide (saturating), 20 h at 26°C, gMFI with peptide divided by gMFI without peptide, mean ± SD of five experiments; for HLA-C*03:04 stabilization, mean relative fluorescence intensity, titration: serial peptide dilutions, non-saturating levels
# [2] = tested on: primary KIR2DL3− NK cells; experiment: Primary NK cell degranulation (CD107a) against peptide-pulsed 721.221-ICP47-C*03:04 cells, KIR2DL3− subset; type: cell-based, human; conditions: % CD107a+ NK cells divided by % with GKL control peptide; effector:target 1:5, 6 h at 26°C; mean ± SEM, nine donors
# Protocol: as §1
# Flow cytometry data were analyzed using FlowJo software version 10.0.6 (Tree Star), and statistical analysis was performed using GraphPad Prism 6 (GraphPad Software). HLA stabilization values are shown as mean relative fluorescence intensity; error bars represent standard deviation (SD). Relative fluorescence intensity was calculated by dividing the geometric mean fluorescence intensity (gMFI) of HLA expression in the presence of the tested peptide by the gMFI of stained target cells without peptide added in each respective assay. Binding of KIR2DL3-Fc is represented as percent of KIR2DL3+ cells ± SD. […]
# [3] = target: biotinylated HLA-C*03:04 monomer refolded with … (human | not stated | HIV-1 clade C); experiment: SPR; Biacore 3000; […]) 10 μg/ml in PBS, 60 μl at 20 μl/min; HBS-EP; 25°C; […]
# [4] = 0.1 μM peptide (non-saturating)
# Chain of recombinant human KIR2DL3-IgG-Fc chimera (P43628 22-245, change not shown): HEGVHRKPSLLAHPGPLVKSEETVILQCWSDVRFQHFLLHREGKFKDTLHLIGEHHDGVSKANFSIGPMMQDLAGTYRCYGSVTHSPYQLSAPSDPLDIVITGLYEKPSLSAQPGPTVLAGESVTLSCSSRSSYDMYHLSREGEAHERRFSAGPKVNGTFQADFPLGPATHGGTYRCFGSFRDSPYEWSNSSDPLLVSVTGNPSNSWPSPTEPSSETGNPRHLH
substance,measurement,setting,value
"GAVDPLLKL [GKL, reference compound]",KIR2DL3 binding (in words),"KIR2DL3; HLA-C*03:04 stabilized at similar levels, used as negative control",did not allow for KIR2DL3 binding
same,KIR2DL3-Fc Binding (Mean ± SD),KIR2DL3,0.06 ± 0.03
same,KIR2DL3+ NK Cell Activity (Mean ± SEM),[1],1.70 ± 0.3
RALGPAATL,"HLA-C*03:04 stabilization, mean relative fluorescence intensity",HLA-C*03:04; [4],1.29 ± 0.19
same,"HLA-C*03:04 stabilization, mean relative fluorescence intensity",HLA-C*03:04; 1 μM peptide (non-saturating),2.72 ± 0.81
RALGPGATL,"HLA-C*03:04 stabilization, mean relative fluorescence intensity",HLA-C*03:04; [4],2.26 ± 0.39
same,"HLA-C*03:04 stabilization, mean relative fluorescence intensity",HLA-C*03:04; 1 μM peptide (non-saturating),4.24 ± 0.46
YVDRFFKAL [TGag303A],"KIR2DL3-Fc binding, percent of cells binding KIR2DL3-Fc",KIR2DL3,15.46 ± 7.24%
same,KIR2DL3-Fc Binding (Mean ± SD),KIR2DL3,0.90 ± 0.17
same,Relative degranulation of KIR2DL3+ NK cells (CD107a),[1],0.89 ± 0.05
same,KIR2DL3+ NK Cell Activity (Mean ± SEM),[1],1.36 ± 0.33
same,"HLA-C*03:04 stabilization, mean relative fluorescence intensity (RFI)",HLA-C*03:04,3.17 ± 0.53
same,"HLA-C*03:04 stabilization, mean relative fluorescence intensity, titration",HLA-C*03:04,1.84 ± 0.79
same,Relative degranulation of KIR2DL3− NK cells (CD107a),[2],1.06 ± 0.04
YVDRFFKTL [TGag303],"KIR2DL3-Fc binding, percent of cells binding KIR2DL3-Fc",KIR2DL3,18.01 ± 10.45%
same,Relative degranulation of KIR2DL3+ NK cells (CD107a),[1],0.78 ± 0.07
same,"HLA-C*03:04 stabilization, mean relative fluorescence intensity (RFI)",HLA-C*03:04,3.24 ± 0.64
same,"HLA-C*03:04 stabilization, mean relative fluorescence intensity, titration",HLA-C*03:04,2.60 ± 1.45
same,Relative degranulation of KIR2DL3− NK cells (CD107a),[2],1.06 ± 0.04
YVDRFFKVL [TGag303V],"KIR2DL3-Fc binding, percent of cells binding KIR2DL3-Fc",KIR2DL3,44.67 ± 14.42%
same,KIR2DL3-Fc Binding (Mean ± SD),KIR2DL3,2.74 ± 0.66
same,Relative degranulation of KIR2DL3+ NK cells (CD107a),[1],0.63 ± 0.07
same,KIR2DL3+ NK Cell Activity (Mean ± SEM),[1],0.76 ± 0.08
same,"HLA-C*03:04 stabilization, mean relative fluorescence intensity (RFI)",HLA-C*03:04,3.40 ± 0.74
same,"HLA-C*03:04 stabilization, mean relative fluorescence intensity, titration",HLA-C*03:04,2.17 ± 1.36
same,Relative degranulation of KIR2DL3− NK cells (CD107a),[2],1.04 ± 0.05
recombinant human KIR2DL3-IgG-Fc chimera (from UniProt P43628) (Fc fusion),Kd,[3],93 nM and 77 nM
